Source: US9487559B2, “Compositions comprising multivalent synthetic ligands of surface nucleolin and glycosaminoglycans” (ELRO PHARMA SARL, priority 2010, dated 2016)
Entries after “also recorded” stand apart in the source; their conditions may differ.

Assays:
PANC1 cells = assay: PANC1 proliferation, gemcitabine alone or combined with N6L, Cs-C or nanoparticles, MTT assay; format: cell-based, human; settings: gemcitabine 1 nM to 50 nM, every day for 4 days, 5% FBS
Method: FIG. 22. Nanoparticles, but not N6L, induce the activity of gemcitabine. Similar number of PANC1 cells was treated with increasing concentrations of gemcitabine alone or in combination with N6L, Cs-C, or nanoparticles composed by Cs-C.

[1] = system: U87-MG (Human glioblastoma-astrocytoma) cells; assay: Anchorage-dependent proliferation of U87-MG cells, MTT assay; format: cell-based; settings: whatever the concentration used (0.1-1000 μg/ml)
[2] = system: PANC-1 (Human pancreatic carcinoma) cells; assay: Anchorage-dependent proliferation of PANC-1 cells, MTT assay; format: cell-based; settings: whatever the concentration used (0.1-1000 μg/ml)
[3] = system: chicken embryo chorioallantoic membrane; assay: In vivo angiogenesis, chicken embryo chorioallantoic membrane (CAM) assay; settings: heparin or CS-C applied alone on the CAM, 48 h
Method: FIG. 21. […] An 1 cm2 area of chicken embryo CAM, restricted by a silicon ring, was incubated with 20 μM N6L or nanoparticles composed by 20 μM N6L and […] heparin or Cs-C. 48 h later, total vessels length was quantified. We observed that N6L had no effect on the in vivo angiogenesis, in contrast to the heparin or Cs-C composed nanoparticles that inhibited the development of new blood vessels (50% and 70%, respectively). Results are mean values±SD from at least 3 independent experiments.
To analyse the effects of N6L pre-incubated with sulfated glycoaminoglycans on in vivo angiogenesis using chicken embryo chorioallantoic membrane assay.
Leghorn fertilized eggs were incubated for 4 days at 37° C. A window was then opened on the eggshell, exposing the CAM. The window was covered with sterile tape, and the eggs were returned to the incubator. On day 9 of embryo development, […] of distilled water as a control or containing either 20 μM N6L, […] or 10 μg/ml CS-C alone or 20 μM N6L pre-incubated with either 10 μg/ml heparin or 10 μg/ml CS-C inside a silicone ring to restricted the area which is 1 cm^2. […] Photographs were taken and the total length of the vessels was quantified using PC image-analysis software (Scion Corporation, USA). […]

Compound | inhibition of PANC1 proliferation by gemcitabine alone (PANC1 cells) | effect of GAG alone on U87-MG proliferation [1] | effect of GAG alone on PANC-1 proliferation [2] | effect of GAG alone on in vivo angiogenesis [3]
Nc1ccn([C@@H]2O[C@H](CO)[C@@H](O)C2(F)F)c(=O)n1 [gemcitabine] | slight inhibition; also recorded: slightly inhibited |  |  | 
chondroitin-6-sulfate [Cs-C] |  | no effect | no effect | no effect
heparin |  | no effect | no effect | no effect
